Test results: PMC7036132, “Effects of the Salt-Processing Method on the Pharmacokinetics and Tissue Distribution of Orally Administered Morinda officinalis How. Extract” (Journal of Analytical Methods in Chemistry, 2020)

Assays:
[1] = Pharmacokinetics in rat plasma after oral administration of MO and SMO extract (UPLC-MS/MS); assay type: in vivo, Sprague-Dawley (SD) rats; conditions: for Cmax: male, Sprague-Dawley, rat, plasma, po, 40 g/kg; for Cmax / AUC (0-t) / AUC (0-∞) / CL/F / MRT (0-t) / T max / V/F / t1/2z: n = 6
Description: For LC-MS/MS analysis, data acquisition and instrument control were performed using MassLynx 4.1 software (Waters Corp., Milford, MA, USA). The analysis column was an Acquity UPLC HSS T3 column (100 mm × 2.1 mm, 1.8 μm, Waters) with a temperature of 40°C. The mobile phase was acetonitrile containing 0.1% formic acid (A) and 0.1% formic acid aqueous solution (B). The elution gradient was 0.00–0.50 min with 2% B; 0.51–5.00 min with 2%–30% B; and 5.01–7.00 min with 40% B. The flow rate was 0.2 mL/min.
The Waters triple quadruple mass spectrometer (Xevo TQD, Waters Corp., Milford, MA, USA) equipped with an electrospray ionization source (ESI) was used in negative ion mode. The desolvation gas was nitrogen with a flow rate of 500 L/h at a temperature of 250°C. All detected compounds were measured in multiple reaction monitoring (MRM) mode.
10 μL of IS working solution and 400 μL of methanol were added to 100 μL plasma. The solution was vortexed for 10 min and then centrifuged at 12,000 rpm for 5 min. The supernatant was shifted to another centrifugation tube and dried with nitrogen at 37°C. The residue was redissolved in 100 μL acetonitrile and centrifuged for 5 min at 12,000 rpm. Five microliters of supernatant was drawn and analyzed by UPLC-MS/MS.
The SD rats (6, male) were housed at 22 ± 2°C and fasted for 12 h with drinking water available ad libitum. MO and SMO ethanol extract were orally administered at a dose of 40 g/kg (equivalent to 6.44 and 3.95 mg/kg of monotropein, 0.088 and 0.091 mg/kg of rubiadin, and 0.174 and 0.178 mg/kg of rubiadin 1-methyl ether). Blood samples (0.5 mL) were collected from the venous plexus of the eye socket at 0.083, 0.25, 0.5, 1.0, 1.5, 2.0, 2.5, 4.0, 6.0, 12.0, and 24 h under anesthesia. Then, the blood samples were centrifuged at 4500 rpm for 10 min, and then the plasma was immediately transferred to new tubes and stored at −80°C until analysis. The pharmacokinetic parameters were calculated using DAS software (3.0 version, China Food and Drug Administration) based on noncompartmental method. All data were recorded as mean ± SD.

[2] = Stability of the three components in rat plasma and tissues (QC samples); conditions: n = 5
Description: The preparation of calibration standards was done as follows: The appropriate working solution was spiked into blank plasma or tissues to obtain concentrations of 75∼0.047 μg/mL for monotropein, 396∼1.54 μg/mL for rubiadin, and 596∼1.16 μg/mL for rubiadin 1-methyl ether. The QC concentrations for monotropein were 0.14 μg/mL, 2 μg/mL, and 28.1 μg/mL; for rubiadin, they were 1.6 μg/mL, 50.6 μg/mL, and 712.5 μg/mL; and for rubiadin 1-methyl ether, they were 3.9 μg/mL, 54.6 μg/mL, and 765 μg/mL. The QC samples used for the recovery, matrix effect, intra- and interday accuracy, precision, and stability studies were prepared in the same way as that of the calibration standards. The solutions were stored for one week at −20°C.
The QC samples used for the recovery QC samples were used to judge the stability, and the storage conditions were as follows: (1) freeze-thaw stability, (2) at room temperature for 4 h, and (3) put into the autosampler for 8 h, and (4) at −20°C for 30 days. The permitted range was within 15%.

[3] = rat kidney, high Conc (rubiadin 4.63, rubiadin 1-methyl ether 3.49, monotropein 28.13 μg/mL)
[4] = rat kidney, low Conc (rubiadin 0.21, rubiadin 1-methyl ether 0.15, monotropein 1.41 μg/mL)
[5] = rat kidney, middle Conc (rubiadin 0.98, rubiadin 1-methyl ether 0.72, monotropein 6.2 μg/mL)
[6] = rat liver, high Conc (rubiadin 4.63, rubiadin 1-methyl ether 3.49, monotropein 28.13 μg/mL)
[7] = rat liver, low Conc (rubiadin 0.21, rubiadin 1-methyl ether 0.15, monotropein 1.41 μg/mL)
[8] = rat liver, middle Conc (rubiadin 0.98, rubiadin 1-methyl ether 0.72, monotropein 6.2 μg/mL)
[9] = rat lung, high Conc (rubiadin 4.63, rubiadin 1-methyl ether 3.49 μg/mL)
[10] = rat lung, low Conc (rubiadin 0.21, rubiadin 1-methyl ether 0.15 μg/mL)
[11] = rat lung, middle Conc (rubiadin 0.98, rubiadin 1-methyl ether 0.72 μg/mL)
[12] = rat plasma, high Conc (rubiadin 712.5, rubiadin 1-methyl ether 765, monotropein 28.1 μg/mL)
[13] = rat plasma, low Conc (rubiadin 3.6, rubiadin 1-methyl ether 3.9, monotropein 0.14 μg/mL)
[14] = rat plasma, middle Conc (rubiadin 50.6, rubiadin 1-methyl ether 54.6, monotropein 2 μg/mL)
[15] = rat small intestine, high Conc (rubiadin 4.63, rubiadin 1-methyl ether 3.49, monotropein 28.13 μg/mL)
[16] = rat small intestine, low Conc (rubiadin 0.21, rubiadin 1-methyl ether 0.15, monotropein 1.41 μg/mL)
[17] = rat small intestine, middle Conc (rubiadin 0.98, rubiadin 1-methyl ether 0.72, monotropein 6.2 μg/mL)

Question: With COc1c(C)c(O)cc2c1C(=O)c1ccccc1C2=O [Rubiadin 1-methyl ether, rubiadin 1-methyl ether] as the compound, how does the “Cmax compared among the three components” value ([1]; especially in the SMO groups) read?
Answer: Its value is “the highest”.

Question: What about the Cmax ([1]; oral MO extract 40 g/kg) of the same compound?
Answer: The Cmax was 0.432 ± 0.037 µg/mL.

Question: And the Cmax ([1]; oral SMO extract 40 g/kg)?
Answer: Its Cmax is 0.509 ± 0.0351 µg/mL.

Question: And the “AUC (0-t)” value ([1]; oral MO extract 40 g/kg)?
Answer: Its value is 1059.49 ± 98.081 μg/L ∗ h.

Question: And the “AUC (0-∞)” value ([1]; oral MO extract 40 g/kg)?
Answer: Its value is 1074.351 ± 102.019 μg/L ∗ h.

Question: And the CL/F ([1]; oral MO extract 40 g/kg)?
Answer: Its CL/F is 0.037 ± 0.372 L/g/h.

Question: And the “MRT (0-t)” value ([1]; oral MO extract 40 g/kg)?
Answer: The value was 2.908 ± 0.151 H.

Question: And the T max ([1]; oral MO extract 40 g/kg)?
Answer: Its T max is 0.5 ± 0.00 H.

Question: What about the V/F ([1]; oral MO extract 40 g/kg) of the same compound?
Answer: The V/F was 0.287 ± 0.067 L/g.

Question: What about the t1/2z ([1]; oral MO extract 40 g/kg) of the same compound?
Answer: Its t1/2z is 5.379 ± 1.514 H.

Question: And the “AUC (0-t)” value ([1]; oral SMO extract 40 g/kg)?
Answer: Its value is 1244.329 ± 82.805 μg/L ∗ h.

Question: And the “AUC (0-∞)” value ([1]; oral SMO extract 40 g/kg)?
Answer: Its value is 1253.526 ± 84.691 μg/L ∗ h.

Question: What about the CL/F ([1]; oral SMO extract 40 g/kg) of the same compound?
Answer: The CL/F was 0.032 ± 0.210 L/g/h.

Question: And the “MRT (0-t)” value ([1]; oral SMO extract 40 g/kg)?
Answer: Its value is 2.855 ± 0.15 H.

Question: What about the T max ([1]; oral SMO extract 40 g/kg) of the same compound?
Answer: The T max was 0.5 ± 0.00 H.

Question: And the V/F ([1]; oral SMO extract 40 g/kg)?
Answer: Its V/F is 0.196 ± 0.363 L/g.

Question: What about the t1/2z ([1]; oral SMO extract 40 g/kg) of the same compound?
Answer: Its t1/2z is 4.27 ± 0.865 H.

Question: What about the “Cmax and AUC0-t, SMO groups compared with the MO group” value ([1]; oral extract 40 g/kg) of the same compound?
Answer: Its value is “elevated remarkably”.

Question: What about the “Stability RE%, At 25°C for 12 h” value [2, 3] of the same compound?
Answer: The value was −3.58%.

Question: What about the “Stability RE%, Autosampler at 4°C for 24 h” value (“Stability RE%, Autosampler” below) [2, 3] of the same compound?
Answer: Its value is −0.36%.

Question: And the “Stability RE%, Freeze–thaw cycles” value [2, 3]?
Answer: The value was −1.57%.

Question: And the “Stability RE%, −20°C for 30 days” value [2, 3]?
Answer: The value was 0.54%.

Question: And the “Stability RE%, At 25°C for 12 h” value [2, 4]?
Answer: The value was 0.35%.

Question: What about the “Stability RE%, Autosampler” value [2, 4] of the same compound?
Answer: Its value is −0.36%.

Question: And the “Stability RE%, Freeze–thaw cycles” value [2, 4]?
Answer: The value was 0.15%.

Question: And the “Stability RE%, −20°C for 30 days” value [2, 4]?
Answer: The value was −5.1%.

Question: And the “Stability RE%, At 25°C for 12 h” value [2, 5]?
Answer: Its value is 0.24%.

Question: And the “Stability RE%, Autosampler” value [2, 5]?
Answer: The value was −0.68%.

Question: And the “Stability RE%, Freeze–thaw cycles” value [2, 5]?
Answer: The value was −0.54%.

Question: What about the “Stability RE%, −20°C for 30 days” value [2, 5] of the same compound?
Answer: Its value is −2.49%.

Question: What about the “Stability RE%, At 25°C for 12 h” value [2, 6] of the same compound?
Answer: Its value is 0.42%.

Question: What about the “Stability RE%, Autosampler” value [2, 6] of the same compound?
Answer: Its value is −0.66%.

Question: What about the “Stability RE%, Freeze–thaw cycles” value [2, 6] of the same compound?
Answer: Its value is −0.68%.

Question: What about the “Stability RE%, −20°C for 30 days” value [2, 6] of the same compound?
Answer: The value was −2.58%.

Question: What about the “Stability RE%, At 25°C for 12 h” value [2, 7] of the same compound?
Answer: The value was −2.1%.

Question: And the “Stability RE%, Autosampler” value [2, 7]?
Answer: Its value is 0.54%.

Question: And the “Stability RE%, Freeze–thaw cycles” value [2, 7]?
Answer: Its value is −1.52%.

Question: What about the “Stability RE%, −20°C for 30 days” value [2, 7] of the same compound?
Answer: The value was −0.58%.

Question: What about the “Stability RE%, At 25°C for 12 h” value [2, 8] of the same compound?
Answer: The value was −3.42%.

Question: And the “Stability RE%, Autosampler” value [2, 8]?
Answer: The value was −3.81%.

Question: What about the “Stability RE%, Freeze–thaw cycles” value [2, 8] of the same compound?
Answer: The value was −5.42%.

Question: And the “Stability RE%, −20°C for 30 days” value [2, 8]?
Answer: The value was −0.45%.

Question: And the “Stability RE%, At 25°C for 12 h” value [2, 9]?
Answer: Its value is −0.06%.

Question: And the “Stability RE%, Autosampler” value [2, 9]?
Answer: The value was −2.42%.

Question: And the “Stability RE%, Freeze–thaw cycles” value [2, 9]?
Answer: The value was −0.53%.

Question: And the “Stability RE%, −20°C for 30 days” value [2, 9]?
Answer: Its value is 0.05%.

Question: What about the “Stability RE%, At 25°C for 12 h” value [2, 10] of the same compound?
Answer: The value was −0.57%.

Question: And the “Stability RE%, Autosampler” value [2, 10]?
Answer: Its value is −8.51%.

Question: And the “Stability RE%, Freeze–thaw cycles” value [2, 10]?
Answer: The value was −2.57%.

Question: What about the “Stability RE%, −20°C for 30 days” value [2, 10] of the same compound?
Answer: Its value is −1.54%.

Question: What about the “Stability RE%, At 25°C for 12 h” value [2, 11] of the same compound?
Answer: The value was −5.71%.

Question: What about the “Stability RE%, Autosampler” value [2, 11] of the same compound?
Answer: The value was −0.65%.

Question: And the “Stability RE%, Freeze–thaw cycles” value [2, 11]?
Answer: Its value is −4.85%.

Question: And the “Stability RE%, −20°C for 30 days” value [2, 11]?
Answer: Its value is −0.55%.

Question: What about the “Stability RE%, At 25°C for 12 h” value [2, 12] of the same compound?
Answer: Its value is −5.1%.

Question: And the “Stability RE%, Autosampler” value [2, 12]?
Answer: Its value is −3.14%.

Question: And the “Stability RE%, Freeze–thaw cycles” value [2, 12]?
Answer: Its value is −3.71%.

Question: What about the “Stability RE%, −20°C for 30 days” value [2, 12] of the same compound?
Answer: The value was −0.86%.

Question: And the “Stability RE%, At 25°C for 12 h” value [2, 13]?
Answer: Its value is −1.79%.

Question: And the “Stability RE%, Autosampler” value [2, 13]?
Answer: Its value is −1.49%.

Question: And the “Stability RE%, Freeze–thaw cycles” value [2, 13]?
Answer: Its value is −0.94%.

Question: And the “Stability RE%, −20°C for 30 days” value [2, 13]?
Answer: Its value is −3.26%.

Question: And the “Stability RE%, At 25°C for 12 h” value [2, 14]?
Answer: The value was −4.21%.

Question: What about the “Stability RE%, Autosampler” value [2, 14] of the same compound?
Answer: Its value is −1.65%.

Question: And the “Stability RE%, Freeze–thaw cycles” value [2, 14]?
Answer: Its value is −1.35%.

Question: And the “Stability RE%, −20°C for 30 days” value [2, 14]?
Answer: Its value is −0.23%.

Question: What about the “Stability RE%, At 25°C for 12 h” value [2, 15] of the same compound?
Answer: Its value is 0.25%.

Question: What about the “Stability RE%, Autosampler” value [2, 15] of the same compound?
Answer: Its value is 0.48%.

Question: What about the “Stability RE%, Freeze–thaw cycles” value [2, 15] of the same compound?
Answer: Its value is −0.74%.

Question: And the “Stability RE%, −20°C for 30 days” value [2, 15]?
Answer: Its value is 1.35%.

Question: And the “Stability RE%, At 25°C for 12 h” value [2, 16]?
Answer: Its value is −0.69%.

Question: What about the “Stability RE%, Autosampler” value [2, 16] of the same compound?
Answer: Its value is −0.42%.

Question: What about the “Stability RE%, Freeze–thaw cycles” value [2, 16] of the same compound?
Answer: The value was −6.57%.

Question: What about the “Stability RE%, −20°C for 30 days” value [2, 16] of the same compound?
Answer: The value was −1.25%.

Question: What about the “Stability RE%, At 25°C for 12 h” value [2, 17] of the same compound?
Answer: The value was −0.85%.

Question: And the “Stability RE%, Autosampler” value [2, 17]?
Answer: Its value is −0.62%.

Question: And the “Stability RE%, Freeze–thaw cycles” value [2, 17]?
Answer: Its value is −0.57%.

Question: And the “Stability RE%, −20°C for 30 days” value [2, 17]?
Answer: The value was −0.25%.
